According to PubChem BioAssay AID2060611 (Molecular Pharmacology Branch, DTP, NCI, 2025):

Test system: 628569-122-R-J1-PDC complex spheroid viability
Assay: Anticancer human tumor 628569-122-R-J1-PDC patient-derived head and neck squamous carcinoma cell line growth inhibition [CLK]
Conditions: for IC50: curve of first compound; for viability, T/C: stronger effect = lower value
How it was run: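 Patient-derived tumor cells grown as complex spheroids with HUVEC endothelial cells and mesenchymal stem cells, treated with drug combinations. Concentrations descend in half-log steps from near clinical Cmax, or from 10 microM if Cmax unknown.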

[1] = second compound 0.0316 µM, first compound 0.0316 µM
[2] = second compound 0.0316 µM, first compound 0.1 µM
[3] = second compound 0.0316 µM, first compound 0.316 µM
[4] = second compound 0.0316 µM, first compound 1 µM
[5] = second compound 0.0316 µM, first compound 3.16 µM
[6] = second compound 0.0316 µM, first compound 10 µM
[7] = second compound 0.1 µM, first compound 0.0316 µM
[8] = second compound 0.1 µM, first compound 0.1 µM
[9] = second compound 0.1 µM, first compound 0.316 µM
[10] = second compound 0.1 µM, first compound 1 µM
[11] = second compound 0.1 µM, first compound 3.16 µM
[12] = second compound 0.1 µM, first compound 10 µM
[13] = second compound 0.316 µM, first compound 0.0316 µM
[14] = second compound 0.316 µM, first compound 0.1 µM
[15] = second compound 0.316 µM, first compound 0.316 µM
[16] = second compound 0.316 µM, first compound 1 µM
[17] = second compound 0.316 µM, first compound 3.16 µM
[18] = second compound 0.316 µM, first compound 10 µM
[19] = second compound 1 µM, first compound 0.0316 µM
[20] = second compound 1 µM, first compound 0.1 µM
[21] = second compound 1 µM, first compound 0.316 µM
[22] = second compound 1 µM, first compound 1 µM
[23] = second compound 1 µM, first compound 3.16 µM
[24] = second compound 1 µM, first compound 10 µM
[25] = second compound 3.16 µM, first compound 0.0316 µM
[26] = second compound 3.16 µM, first compound 0.1 µM
[27] = second compound 3.16 µM, first compound 0.316 µM
[28] = second compound 3.16 µM, first compound 1 µM
[29] = second compound 3.16 µM, first compound 3.16 µM
[30] = second compound 3.16 µM, first compound 10 µM
[31] = second compound 10 µM, first compound 0.0316 µM
[32] = second compound 10 µM, first compound 0.1 µM
[33] = second compound 10 µM, first compound 0.316 µM
[34] = second compound 10 µM, first compound 1 µM
[35] = second compound 10 µM, first compound 3.16 µM
[36] = second compound 10 µM, first compound 10 µM
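Further: spheroids exposed to agents for seven days before readout.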
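Wherever viability, T/C is given: 100% = DMSO vehicle control viability.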

## C=C(F)C(=O)N1CCN(c2nc(OCC3CCCN3C)nc3c2CCN(c2cccc4cccc(Cl)c24)C3)CC1CC#N (centres undefined) + CNC(=O)c1ccc(Nc2nc(OC3CCCC3)c3c(-c4ccc5nc(C)oc5c4)c[nH]c3n2)c(OC)c1
Second compound 0.0316 µM
  IC50: 5.89 µM
Second compound 0.1 µM
  IC50: 4.25 µM
Second compound 0.316 µM
  IC50: 3.64 µM
Second compound 1 µM
  IC50: 0.0316 µM
Second compound 3.16 µM
  IC50: < 0.0316 µM
Second compound 10 µM
  IC50: < 0.0316 µM
[1]
  viability, T/C: 84.5%
[2]
  viability, T/C: 85.8%
[3]
  viability, T/C: 88.8%
[4]
  viability, T/C: 112%
[5]
  viability, T/C: 126%
[6]
  viability, T/C: 8.03%
[7]
  viability, T/C: 58.8%
[8]
  viability, T/C: 53.8%
[9]
  viability, T/C: 65.5%
[10]
  viability, T/C: 64%
[11]
  viability, T/C: 90.2%
[12]
  viability, T/C: 1.94%
[13]
  viability, T/C: 54.6%
[14]
  viability, T/C: 47.9%
[15]
  viability, T/C: 49.3%
[16]
  viability, T/C: 56.3%
[17]
  viability, T/C: 72.1%
[18]
  viability, T/C: 6.63%
[19]
  viability, T/C: 46.5%
[20]
  viability, T/C: 42.9%
[21]
  viability, T/C: 43.7%
[22]
  viability, T/C: 49%
[23]
  viability, T/C: 62.8%
[24]
  viability, T/C: 1.4%
[25]
  viability, T/C: 46.2%
[26]
  viability, T/C: 43.3%
[27]
  viability, T/C: 45.4%
[28]
  viability, T/C: 51.5%
[29]
  viability, T/C: 48.1%
[30]
  viability, T/C: 0.86%
[31]
  viability, T/C: 53.9%
[32]
  viability, T/C: 36.1%
[33]
  viability, T/C: 46.7%
[34]
  viability, T/C: 54.5%
[35]
  viability, T/C: 43.8%
[36]
  viability, T/C: 5.33%

## C=CC(=O)N1CCN(c2nc(=O)n(-c3c(C)ccnc3C(C)C)c3nc(-c4c(O)cccc4F)c(F)cc23)C(C)C1 (centres undefined) + CNC(=O)c1ccc(Nc2nc(OC3CCCC3)c3c(-c4ccc5nc(C)oc5c4)c[nH]c3n2)c(OC)c1
Second compound 0.0316 µM
  IC50: > 10 µM
Second compound 0.1 µM
  IC50: > 10 µM
Second compound 0.316 µM
  IC50: > 10 µM
Second compound 1 µM
  IC50: < 0.0316 µM
Second compound 3.16 µM
  IC50: < 0.0316 µM
Second compound 10 µM
  IC50: < 0.0316 µM
[1]
  viability, T/C: 80%
[2]
  viability, T/C: 105%
[3]
  viability, T/C: 84.1%
[4]
  viability, T/C: 105%
[5]
  viability, T/C: 127%
[6]
  viability, T/C: 125%
[7]
  viability, T/C: 61.9%
[8]
  viability, T/C: 64.2%
[9]
  viability, T/C: 60%
[10]
  viability, T/C: 59.7%
[11]
  viability, T/C: 75.8%
[12]
  viability, T/C: 81.1%
[13]
  viability, T/C: 52.6%
[14]
  viability, T/C: 59.9%
[15]
  viability, T/C: 60.2%
[16]
  viability, T/C: 62.9%
[17]
  viability, T/C: 63.7%
[18]
  viability, T/C: 67%
[19]
  viability, T/C: 49.9%
[20]
  viability, T/C: 47%
[21]
  viability, T/C: 47.1%
[22]
  viability, T/C: 58.4%
[23]
  viability, T/C: 59.6%
[24]
  viability, T/C: 59.8%
[25]
  viability, T/C: 39.7%
[26]
  viability, T/C: 45.9%
[27]
  viability, T/C: 51.5%
[28]
  viability, T/C: 50.4%
[29]
  viability, T/C: 54.7%
[30]
  viability, T/C: 53%
[31]
  viability, T/C: 48.6%
[32]
  viability, T/C: 37.7%
[33]
  viability, T/C: 47.1%
[34]
  viability, T/C: 44.9%
[35]
  viability, T/C: 44.7%
[36]
  viability, T/C: 44%
